# From US20050169992A1, “Methods and dosage forms for increasing solubility of drug compositions for controlled delivery” (priority 2003, published 2005)
# How the values were obtained:
# [1] = Analytical Profiles of Drug Substances Volume 13, p 425; cited from earlier work
# [2] = Saturated solubility of topiramate in de-ionized water and aqueous surfactant solutions at 37° C.; format: physicochemical; details: Lutrol F127, F87, F108, F68 and Myrj 52 solutions at 1, 5, 15 weight percent, FIG. 6
# Procedure: Aqueous solubility is determined by adding the therapeutic agent to stirred or agitated water maintained in a constant temperature bath at a temperature of 37 degrees centigrade until equilibrium is established between the dissolved and undissolved states and the concentration of dissolved drug is constant. The resulting solution saturated with active agent is then filtered, typically under pressure through a 0.8-micron Millipore filter, and the concentration in solution is measured by any appropriate analytical method including gravimetric, ultraviolet spectrophotometry, refractive index, refractive index chromatography, and the like.
# The present invention involves a method to match the appropriate solid surfactant or blend of surfactants with a particular pharmaceutical active agent to produce the solubilizing core, or S-Core of the present invention. […] Then, pharmaceutical agent is added in excess to the surfactant solutions and the saturated solubility of the pharmaceutical active agent is then measured by an appropriate analytical method such as ultraviolet spectroscopy, chromatographic methods, or gravimetric analysis. […]
# The aqueous surfactant solutions were then equilibrated to constant temperature in a 37° C. water bath. […] The resulting saturated solutions of drug were filtered through 0.8-micron filters and analyzed for drug concentration by refractive index chromatography. […]
Compound,Solubility of phenytoin [1],Topiramate solubility in water in the presence of surfactant compared to control [2]
O=C1NC(=O)C(c2ccccc2)(c2ccccc2)N1 [phenytoin],0.02 mg/mL,–
CC1(C)O[C@@H]2[C@@H](CO[C@@]3(COS(N)(=O)=O)OC(C)(C)O[C@@H]23)O1 [topiramate],–,increased
